Experimental data as given in ChEMBL document CHEMBL5444388, “Affinity Phenotypic Cellular Literature for EUbOPEN Chemogenomic Library” (2024).

Experiments:
Type in all cases: functional, cell-based
Set-up in all cases: recommended concentration 100 nM
[1] = molecular target: Centromere-associated protein E (Homo sapiens) (UniProt Q02224); test: Affinity Phenotypic Cellular interaction: (Cell-growth inhibition assays (growth inhibitory effect colon cancer cell line 22Rv1)) EUB0000734a CENPE; settings: CWR22R, Affinity Phenotypic Cellular Source Knowledge https://pubmed.ncbi.nlm.nih.gov/20167803/
Centromere-associated protein E (Homo sapiens), sequence (Q02224 whole entry): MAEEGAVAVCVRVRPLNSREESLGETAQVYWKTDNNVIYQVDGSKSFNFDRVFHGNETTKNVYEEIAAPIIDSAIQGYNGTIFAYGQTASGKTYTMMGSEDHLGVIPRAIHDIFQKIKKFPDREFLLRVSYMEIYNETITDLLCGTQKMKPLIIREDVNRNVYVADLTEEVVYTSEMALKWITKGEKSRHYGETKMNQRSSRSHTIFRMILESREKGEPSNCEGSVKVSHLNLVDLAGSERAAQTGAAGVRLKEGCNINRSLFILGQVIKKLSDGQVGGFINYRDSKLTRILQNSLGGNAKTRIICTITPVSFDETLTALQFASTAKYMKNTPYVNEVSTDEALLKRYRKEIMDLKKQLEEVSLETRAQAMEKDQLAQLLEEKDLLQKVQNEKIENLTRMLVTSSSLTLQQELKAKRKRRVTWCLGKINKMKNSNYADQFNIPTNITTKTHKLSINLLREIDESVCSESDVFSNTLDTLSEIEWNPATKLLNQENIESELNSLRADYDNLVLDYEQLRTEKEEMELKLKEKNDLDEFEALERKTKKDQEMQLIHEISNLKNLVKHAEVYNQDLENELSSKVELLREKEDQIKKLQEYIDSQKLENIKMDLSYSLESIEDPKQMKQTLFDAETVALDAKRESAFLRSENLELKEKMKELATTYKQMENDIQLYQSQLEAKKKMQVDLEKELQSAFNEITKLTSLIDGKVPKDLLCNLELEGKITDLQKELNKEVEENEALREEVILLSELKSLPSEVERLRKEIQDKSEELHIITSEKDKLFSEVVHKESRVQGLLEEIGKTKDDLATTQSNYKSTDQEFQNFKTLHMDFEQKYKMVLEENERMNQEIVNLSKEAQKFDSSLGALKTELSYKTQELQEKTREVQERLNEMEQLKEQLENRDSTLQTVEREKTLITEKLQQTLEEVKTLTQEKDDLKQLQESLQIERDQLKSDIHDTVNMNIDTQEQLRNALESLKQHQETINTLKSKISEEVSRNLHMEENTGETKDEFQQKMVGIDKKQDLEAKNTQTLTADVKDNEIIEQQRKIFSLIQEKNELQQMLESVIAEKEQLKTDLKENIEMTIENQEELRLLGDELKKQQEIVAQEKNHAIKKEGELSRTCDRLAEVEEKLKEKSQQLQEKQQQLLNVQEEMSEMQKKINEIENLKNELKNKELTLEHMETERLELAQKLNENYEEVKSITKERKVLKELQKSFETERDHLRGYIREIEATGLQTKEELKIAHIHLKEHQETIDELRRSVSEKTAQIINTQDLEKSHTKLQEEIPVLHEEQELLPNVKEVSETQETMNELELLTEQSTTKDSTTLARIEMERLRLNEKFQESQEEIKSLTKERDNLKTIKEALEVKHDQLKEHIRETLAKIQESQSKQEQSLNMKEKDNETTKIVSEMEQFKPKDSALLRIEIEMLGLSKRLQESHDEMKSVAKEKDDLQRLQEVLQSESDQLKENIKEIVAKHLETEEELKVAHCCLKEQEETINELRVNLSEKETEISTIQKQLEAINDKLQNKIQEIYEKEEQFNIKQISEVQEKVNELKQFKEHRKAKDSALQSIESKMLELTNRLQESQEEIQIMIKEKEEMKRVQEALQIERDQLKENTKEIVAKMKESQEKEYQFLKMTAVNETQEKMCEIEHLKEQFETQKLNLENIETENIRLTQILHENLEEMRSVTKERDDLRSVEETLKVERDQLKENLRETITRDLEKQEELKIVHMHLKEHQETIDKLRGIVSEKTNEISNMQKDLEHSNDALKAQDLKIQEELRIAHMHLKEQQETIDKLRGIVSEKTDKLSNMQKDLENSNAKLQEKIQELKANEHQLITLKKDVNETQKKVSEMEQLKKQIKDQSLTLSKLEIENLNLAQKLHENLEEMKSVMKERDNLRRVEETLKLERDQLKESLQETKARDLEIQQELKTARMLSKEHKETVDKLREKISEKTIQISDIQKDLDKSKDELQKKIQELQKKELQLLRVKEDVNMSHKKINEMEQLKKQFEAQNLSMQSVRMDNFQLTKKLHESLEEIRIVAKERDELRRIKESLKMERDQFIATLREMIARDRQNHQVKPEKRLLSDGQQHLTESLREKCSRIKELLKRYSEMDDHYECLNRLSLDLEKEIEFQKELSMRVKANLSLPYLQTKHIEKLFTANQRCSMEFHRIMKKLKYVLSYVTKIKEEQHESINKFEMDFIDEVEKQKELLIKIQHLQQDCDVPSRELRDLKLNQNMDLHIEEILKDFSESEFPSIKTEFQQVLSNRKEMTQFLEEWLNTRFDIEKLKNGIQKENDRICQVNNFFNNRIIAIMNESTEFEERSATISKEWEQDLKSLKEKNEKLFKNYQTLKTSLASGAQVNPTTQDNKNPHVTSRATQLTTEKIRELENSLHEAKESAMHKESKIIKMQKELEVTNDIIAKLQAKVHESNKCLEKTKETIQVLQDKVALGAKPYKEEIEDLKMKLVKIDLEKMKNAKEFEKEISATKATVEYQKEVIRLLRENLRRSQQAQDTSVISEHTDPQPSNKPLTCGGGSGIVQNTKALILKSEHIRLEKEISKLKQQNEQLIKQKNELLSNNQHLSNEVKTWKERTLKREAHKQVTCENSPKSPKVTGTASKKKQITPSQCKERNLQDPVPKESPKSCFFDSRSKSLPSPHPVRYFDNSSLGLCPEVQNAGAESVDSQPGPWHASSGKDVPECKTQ

[2] = molecular target: Centromere-associated protein E (Homo sapiens) (UniProt Q02224); test: Affinity Phenotypic Cellular interaction: (Cell-growth inhibition assays (growth inhibitory effect colon cancer cell line BC-3)) EUB0000734a CENPE; settings: Affinity Phenotypic Cellular Source Knowledge https://pubmed.ncbi.nlm.nih.gov/20167803/
[3] = molecular target: Centromere-associated protein E (Homo sapiens) (UniProt Q02224); test: Affinity Phenotypic Cellular interaction: (Cell-growth inhibition assays (growth inhibitory effect colon cancer cell line BHT-101)) EUB0000734a CENPE; settings: Affinity Phenotypic Cellular Source Knowledge https://pubmed.ncbi.nlm.nih.gov/20167803/
[4] = molecular target: Centromere-associated protein E (Homo sapiens) (UniProt Q02224); test: Affinity Phenotypic Cellular interaction: (Cell-growth inhibition assays (growth inhibitory effect colon cancer cell line BT-20)) EUB0000734a CENPE; settings: Affinity Phenotypic Cellular Source Knowledge https://pubmed.ncbi.nlm.nih.gov/20167803/
[5] = molecular target: Centromere-associated protein E (Homo sapiens) (UniProt Q02224); test: Affinity Phenotypic Cellular interaction: (Cell-growth inhibition assays (growth inhibitory effect colon cancer cell line Caki-2)) EUB0000734a CENPE; settings: Affinity Phenotypic Cellular Source Knowledge https://pubmed.ncbi.nlm.nih.gov/20167803/
[6] = molecular target: Centromere-associated protein E (Homo sapiens) (UniProt Q02224); test: Affinity Phenotypic Cellular interaction: (Cell-growth inhibition assays (growth inhibitory effect colon cancer cell line CCF-STTG1)) EUB0000734a CENPE; settings: Affinity Phenotypic Cellular Source Knowledge https://pubmed.ncbi.nlm.nih.gov/20167803/
[7] = molecular target: Centromere-associated protein E (Homo sapiens) (UniProt Q02224); test: Affinity Phenotypic Cellular interaction: (Cell-growth inhibition assays (growth inhibitory effect colon cancer cell line CML-T1)) EUB0000734a CENPE; settings: Affinity Phenotypic Cellular Source Knowledge https://pubmed.ncbi.nlm.nih.gov/20167803/
[8] = molecular target: Centromere-associated protein E (Homo sapiens) (UniProt Q02224); test: Affinity Phenotypic Cellular interaction: (Cell-growth inhibition assays (growth inhibitory effect colon cancer cell line CRO-AP2)) EUB0000734a CENPE; settings: Affinity Phenotypic Cellular Source Knowledge https://pubmed.ncbi.nlm.nih.gov/20167803/
[9] = molecular target: Centromere-associated protein E (Homo sapiens) (UniProt Q02224); test: Affinity Phenotypic Cellular interaction: (Cell-growth inhibition assays (growth inhibitory effect colon cancer cell line DB)) EUB0000734a CENPE; settings: Affinity Phenotypic Cellular Source Knowledge https://pubmed.ncbi.nlm.nih.gov/20167803/
[10] = molecular target: Centromere-associated protein E (Homo sapiens) (UniProt Q02224); test: Affinity Phenotypic Cellular interaction: (Cell-growth inhibition assays (growth inhibitory effect colon cancer cell line EKVX)) EUB0000734a CENPE; settings: Affinity Phenotypic Cellular Source Knowledge https://pubmed.ncbi.nlm.nih.gov/20167803/
[11] = molecular target: Centromere-associated protein E (Homo sapiens) (UniProt Q02224); test: Affinity Phenotypic Cellular interaction: (Cell-growth inhibition assays (growth inhibitory effect colon cancer cell line ES-2)) EUB0000734a CENPE; settings: Affinity Phenotypic Cellular Source Knowledge https://pubmed.ncbi.nlm.nih.gov/20167803/
[12] = molecular target: Centromere-associated protein E (Homo sapiens) (UniProt Q02224); test: Affinity Phenotypic Cellular interaction: (Cell-growth inhibition assays (growth inhibitory effect colon cancer cell line H4)) EUB0000734a CENPE; settings: Affinity Phenotypic Cellular Source Knowledge https://pubmed.ncbi.nlm.nih.gov/20167803/
[13] = molecular target: Centromere-associated protein E (Homo sapiens) (UniProt Q02224); test: Affinity Phenotypic Cellular interaction: (Cell-growth inhibition assays (growth inhibitory effect colon cancer cell line HCC1143)) EUB0000734a CENPE; settings: Affinity Phenotypic Cellular Source Knowledge https://pubmed.ncbi.nlm.nih.gov/20167803/
[14] = molecular target: Centromere-associated protein E (Homo sapiens) (UniProt Q02224); test: Affinity Phenotypic Cellular interaction: (Cell-growth inhibition assays (growth inhibitory effect colon cancer cell line HEC-1-A)) EUB0000734a CENPE; settings: Affinity Phenotypic Cellular Source Knowledge https://pubmed.ncbi.nlm.nih.gov/20167803/
[15] = molecular target: Centromere-associated protein E (Homo sapiens) (UniProt Q02224); test: Affinity Phenotypic Cellular interaction: (Cell-growth inhibition assays (growth inhibitory effect colon cancer cell line HEC-1-B)) EUB0000734a CENPE; settings: Affinity Phenotypic Cellular Source Knowledge https://pubmed.ncbi.nlm.nih.gov/20167803/
[16] = molecular target: Centromere-associated protein E (Homo sapiens) (UniProt Q02224); test: Affinity Phenotypic Cellular interaction: (Cell-growth inhibition assays (growth inhibitory effect colon cancer cell line HeLa)) EUB0000734a CENPE; settings: Affinity Phenotypic Cellular Source Knowledge https://pubmed.ncbi.nlm.nih.gov/20167803/
[17] = molecular target: Centromere-associated protein E (Homo sapiens) (UniProt Q02224); test: Affinity Phenotypic Cellular interaction: (Cell-growth inhibition assays (growth inhibitory effect colon cancer cell line MDA-MB-435)) EUB0000734a CENPE; settings: Affinity Phenotypic Cellular Source Knowledge https://pubmed.ncbi.nlm.nih.gov/20167803/
[18] = molecular target: Centromere-associated protein E (Homo sapiens) (UniProt Q02224); test: Affinity Phenotypic Cellular interaction: (Cell-growth inhibition assays (growth inhibitory effect lung cancer cell line MV522)) EUB0000734a CENPE; settings: MV-522, Affinity Phenotypic Cellular Source Knowledge https://pubmed.ncbi.nlm.nih.gov/20167803/
[19] = molecular target: Centromere-associated protein E (Homo sapiens) (UniProt Q02224); test: Affinity Phenotypic Cellular interaction: (Cell-growth inhibition assays (growth inhibitory effect colon cancer cell line OV-90)) EUB0000734a CENPE; settings: Affinity Phenotypic Cellular Source Knowledge https://pubmed.ncbi.nlm.nih.gov/20167803/
[20] = molecular target: Centromere-associated protein E (Homo sapiens) (UniProt Q02224); test: Affinity Phenotypic Cellular interaction: (Cell-growth inhibition assays (growth inhibitory effect colon cancer cell line OVCAR-3)) EUB0000734a CENPE; settings: Affinity Phenotypic Cellular Source Knowledge https://pubmed.ncbi.nlm.nih.gov/20167803/
[21] = molecular target: Centromere-associated protein E (Homo sapiens) (UniProt Q02224); test: Affinity Phenotypic Cellular interaction: (Cell-growth inhibition assays (growth inhibitory effect colon cancer cell line RPMI6666)) EUB0000734a CENPE; settings: RPMI-6666, Affinity Phenotypic Cellular Source Knowledge https://pubmed.ncbi.nlm.nih.gov/20167803/
[22] = molecular target: Centromere-associated protein E (Homo sapiens) (UniProt Q02224); test: Affinity Phenotypic Cellular interaction: (Cell-growth inhibition assays (growth inhibitory effect colon cancer cell line SCC-4)) EUB0000734a CENPE; settings: Affinity Phenotypic Cellular Source Knowledge https://pubmed.ncbi.nlm.nih.gov/20167803/
[23] = molecular target: Centromere-associated protein E (Homo sapiens) (UniProt Q02224); test: Affinity Phenotypic Cellular interaction: (Cell-growth inhibition assays (growth inhibitory effect colon cancer cell line SF-268)) EUB0000734a CENPE; settings: Affinity Phenotypic Cellular Source Knowledge https://pubmed.ncbi.nlm.nih.gov/20167803/
[24] = molecular target: Centromere-associated protein E (Homo sapiens) (UniProt Q02224); test: Affinity Phenotypic Cellular interaction: (Cell-growth inhibition assays (growth inhibitory effect colon cancer cell line SK-MEL-3)) EUB0000734a CENPE; settings: SK-MEL3, Affinity Phenotypic Cellular Source Knowledge https://pubmed.ncbi.nlm.nih.gov/20167803/
[25] = molecular target: Centromere-associated protein E (Homo sapiens) (UniProt Q02224); test: Affinity Phenotypic Cellular interaction: (Cell-growth inhibition assays (growth inhibitory effect colon cancer cell line SNB-75)) EUB0000734a CENPE; settings: Affinity Phenotypic Cellular Source Knowledge https://pubmed.ncbi.nlm.nih.gov/20167803/
[26] = molecular target: Centromere-associated protein E (Homo sapiens) (UniProt Q02224); test: Affinity Phenotypic Cellular interaction: (Cell-growth inhibition assays (growth inhibitory effect colon cancer cell line SNU-398)) EUB0000734a CENPE; settings: Affinity Phenotypic Cellular Source Knowledge https://pubmed.ncbi.nlm.nih.gov/20167803/
[27] = molecular target: Centromere-associated protein E (Homo sapiens) (UniProt Q02224); test: Affinity Phenotypic Cellular interaction: (Cell-growth inhibition assays (growth inhibitory effect colon cancer cell line SNU-449)) EUB0000734a CENPE; settings: Affinity Phenotypic Cellular Source Knowledge https://pubmed.ncbi.nlm.nih.gov/20167803/
[28] = molecular target: Centromere-associated protein E (Homo sapiens) (UniProt Q02224); test: Affinity Phenotypic Cellular interaction: (Cell-growth inhibition assays (growth inhibitory effect colon cancer cell line SR)) EUB0000734a CENPE; settings: Affinity Phenotypic Cellular Source Knowledge https://pubmed.ncbi.nlm.nih.gov/20167803/
[29] = molecular target: Centromere-associated protein E (Homo sapiens) (UniProt Q02224); test: Affinity Phenotypic Cellular interaction: (Cell-growth inhibition assays (growth inhibitory effect colon cancer cell line SW1417)) EUB0000734a CENPE; settings: Affinity Phenotypic Cellular Source Knowledge https://pubmed.ncbi.nlm.nih.gov/20167803/
[30] = molecular target: Centromere-associated protein E (Homo sapiens) (UniProt Q02224); test: Affinity Phenotypic Cellular interaction: (Cell-growth inhibition assays (growth inhibitory effect colon cancer cell line SW48)) EUB0000734a CENPE; settings: Affinity Phenotypic Cellular Source Knowledge https://pubmed.ncbi.nlm.nih.gov/20167803/
[31] = molecular target: Centromere-associated protein E (Homo sapiens) (UniProt Q02224); test: Affinity Phenotypic Cellular interaction: (Cell-growth inhibition assays (growth inhibitory effect thyroid cancer cell line SW579)) EUB0000734a CENPE; settings: Affinity Phenotypic Cellular Source Knowledge https://pubmed.ncbi.nlm.nih.gov/20167803/
[32] = molecular target: Centromere-associated protein E (Homo sapiens) (UniProt Q02224); test: Affinity Phenotypic Cellular interaction: (Cell-growth inhibition assays (growth inhibitory effect colon cancer cell line SW756)) EUB0000734a CENPE; settings: Affinity Phenotypic Cellular Source Knowledge https://pubmed.ncbi.nlm.nih.gov/20167803/
[33] = molecular target: Centromere-associated protein E (Homo sapiens) (UniProt Q02224); test: Affinity Phenotypic Cellular interaction: (Cell-growth inhibition assays (growth inhibitory effect colon cancer cell line SW-872)) EUB0000734a CENPE; settings: SW872, Affinity Phenotypic Cellular Source Knowledge https://pubmed.ncbi.nlm.nih.gov/20167803/
[34] = molecular target: Centromere-associated protein E (Homo sapiens) (UniProt Q02224); test: Affinity Phenotypic Cellular interaction: (Cell-growth inhibition assays (growth inhibitory effect colon cancer cell line SW-954)) EUB0000734a CENPE; settings: Affinity Phenotypic Cellular Source Knowledge https://pubmed.ncbi.nlm.nih.gov/20167803/
[35] = molecular target: Centromere-associated protein E (Homo sapiens) (UniProt Q02224); test: Affinity Phenotypic Cellular interaction: (Cell-growth inhibition assays (growth inhibitory effect sarcoma cancer cell line TE381.T)) EUB0000734a CENPE; settings: TE 381.T, Affinity Phenotypic Cellular Source Knowledge https://pubmed.ncbi.nlm.nih.gov/20167803/
[36] = molecular target: Centromere-associated protein E (Homo sapiens) (UniProt Q02224); test: Affinity Phenotypic Cellular interaction: (Cell-growth inhibition assays (growth inhibitory effect colon cancer cell line TK-10)) EUB0000734a CENPE; settings: Affinity Phenotypic Cellular Source Knowledge https://pubmed.ncbi.nlm.nih.gov/20167803/
[37] = molecular target: Centromere-associated protein E (Homo sapiens) (UniProt Q02224); test: Affinity Phenotypic Cellular interaction: (Cell-growth inhibition assays (growth inhibitory effect colon cancer cell line WiDr)) EUB0000734a CENPE; settings: Affinity Phenotypic Cellular Source Knowledge https://pubmed.ncbi.nlm.nih.gov/20167803/
[38] = molecular target: Centromere-associated protein E (Homo sapiens) (UniProt Q02224); test: Affinity Phenotypic Cellular interaction: (Cell-growth inhibition assays (growth inhibitory effect colon cancer cell line YAPC)) EUB0000734a CENPE; settings: Affinity Phenotypic Cellular Source Knowledge https://pubmed.ncbi.nlm.nih.gov/20167803/

## CC(C)Oc1ccc(C(=O)N[C@H](CNC(=O)CN(C)C)Cc2ccc(-c3cn4cccc([C@H](C)O)c4n3)cc2)cc1Cl
[1]
  GIC50: 29 nM
[2]
  GIC50: 88 nM
[3]
  GIC50: 100 nM
[4]
  GIC50: 32 nM
[5]
  GIC50: 25 nM
[6]
  GIC50: 24 nM
[7]
  GIC50: 13 nM
[8]
  GIC50: 51 nM
[9]
  GIC50: 21 nM
[10]
  GIC50: 28 nM
[11]
  GIC50: 30 nM
[12]
  GIC50: 31 nM
[13]
  GIC50: 27 nM
[14]
  GIC50: 50 nM
[15]
  GIC50: 28 nM
[16]
  GIC50: 20 nM
[17]
  GIC50: 30 nM
[18]
  GIC50: 48 nM
[19]
  GIC50: 61 nM
[20]
  GIC50: 42 nM
[21]
  GIC50: 88 nM
[22]
  GIC50: 28 nM
[23]
  GIC50: 26 nM
[24]
  GIC50: 30 nM
[25]
  GIC50: 26 nM
[26]
  GIC50: 27 nM
[27]
  GIC50: 236 nM
[28]
  GIC50: 29 nM
[29]
  GIC50: 29 nM
[30]
  GIC50: 25 nM
[31]
  GIC50: 26 nM
[32]
  GIC50: 35 nM
[33]
  GIC50: 37 nM
[34]
  GIC50: 22 nM
[35]
  GIC50: 27 nM
[36]
  GIC50: 49 nM
[37]
  GIC50: 18 nM
[38]
  GIC50: 59 nM
